# In patent US20220040072A1, “Reduction of Pathogenic Bacteria Using Arginine” (Colgate-Palmolive Company, priority 2018, published 2022):
# Columns and labels:
# A. viscosus = assay: Single species growth in media supplemented with arginine (optical density 630 nm); format: cell-based, Actinomyces viscosus; settings: 10-25 micromol/ml arginine; vs reference control set to 1; OD 630 nm at 24 and 48 hours
# Experimental: (§1) To assess the impact of the amino acid arginine on beneficial oral bacteria and on pathogenic oral bacteria, representative bacterial species were cultured in media supplemented with 5, 10, 20, and 25 micromol/ml of arginine using a 96-well polystyrene microtiter plate. The bacterial cultures were incubated under anaerobic conditions or an environment containing 5% carbon dioxide, monitoring growth at 24 and 48 hours through optical density at a wavelength of 630 nm.
# (§2) *Single species growth and biofilm formation stimulated by arginine in comparison to the reference control which was set to a value of 1 (p<0.05). Cut-off values were set to a factor of 1.2 for growth (upper 5% of all data), and 1.45 for biofilm formation (upper 20% of all data). Aa: Aggregatibacter actinomycetemcomitans, Fn: Fusobacterium nucleatum, Ssob: Streptococcus sobrinus, Avisc: Actinomyces viscosus, Ssal: Streptococcus salivarius, Smitis: Streptococcus mitis, Ssang: Streptococcus sanguinis, Sgord: Streptococcus gordonii, Soralis: Streptococcus oralis.
# Prevotella intermedia = assay: Dual species competitive biofilm assay (qPCR); format: cell-based; settings: 25 μmol/ml arginine, negative value = reduction of pathogen
# Experimental: (§3) The impact of arginine in a dual-species biofilm was assessed by co-culturing one beneficial bacterial species with on pathogenic microbe in media containing 25 micromol/ml of arginine. The total beneficial-to-pathogen load in the results biofilms were determined via qPCR using DNA probes.
# (§4) Using a competitive biofilm assay, the role of arginine as a selective nutrient was assessed using a dual species biofilm model (Table 2).
# [1] = test system: Aggregatibacter actinomycetemcomitans; assay: Dual species competitive biofilm assay (qPCR); format: cell-based; settings: 25 μmol/ml arginine, negative value = reduction of pathogen
# Experimental: as §3, §4
# Porphyromonas gingivalis = assay: Dual species competitive biofilm assay (qPCR); format: cell-based; settings: 25 μmol/ml arginine, negative value = reduction of pathogen
# Experimental: as §3, §4
# beneficial bacteria = assay: Dual species competitive biofilm assay (qPCR); format: cell-based; settings: 25 micromol/ml arginine; co-cultured with one pathogenic microbe
# Experimental: as §3, §4
# Streptococcus mutans = assay: Dual species competitive biofilm assay (qPCR); format: cell-based; settings: 25 μmol/ml arginine, negative value = reduction of pathogen
# Experimental: as §3, §4
# Streptococcus sobrinus = assay: Dual species competitive biofilm assay (qPCR); format: cell-based; settings: 25 μmol/ml arginine, negative value = reduction of pathogen
# Experimental: as §3, §4
# pathogenic bacteria = assay: Single species growth in media supplemented with arginine (optical density 630 nm); format: cell-based; settings: 5, 10, 20, 25 micromol/ml arginine; OD 630 nm at 24 and 48 hours
# Experimental: as §1, §2
# Fusobacterium nucieatum = assay: Dual species competitive biofilm assay (qPCR); format: cell-based, Fusobacterium nucleatum; settings: 25 μmol/ml arginine, negative value = reduction of pathogen
# Experimental: as §3, §4
# S. gordonii = assay: Single species growth in media supplemented with arginine (optical density 630 nm); format: cell-based, Streptococcus gordonii; settings: 10-25 micromol/ml arginine; vs reference control set to 1; OD 630 nm at 24 and 48 hours
# Experimental: as §1, §2
# [2] = test system: pathogenic and beneficial microbes; assay: Total biofilm growth in the presence of arginine (crystal violet staining); format: cell-based; settings: vs no substrate control, species other than A. actinomycetemcomitans
# Description: as §2
# (§5) Total biofilm growth in the presence of arginine was assessed through crystal violet staining. An increase of 1.2-fold or greater over the no substrate control was considered significant as calculated using a Student's t-test (p<0.05).
# [3] = test system: A. actinomycetemcomitans biofilms; assay: as above; format: cell-based, Aggregatibacter actinomycetemcomitans; settings: vs no substrate control
# Description: as §2, §5
# S. sanguinis = assay: Single species growth in media supplemented with arginine (optical density 630 nm); format: cell-based, Streptococcus sanguinis; settings: 10-25 micromol/ml arginine; vs reference control set to 1; OD 630 nm at 24 and 48 hours
# Experimental: as §1, §2
# [4] = co-cultured with Actinomyces viscosus
# [5] = co-cultured with Streptoccoccus salivarius
# [6] = co-cultured with Streptococcus gordonii
# [7] = co-cultured with Streptococcus mitis
# [8] = co-cultured with Streptococcus oralis
# [9] = co-cultured with Streptococcus sanguinis
smiles,measurement,setting,value
N=C(N)NCCC[C@H](N)C(=O)O [arginine],fold increase of growth,A. viscosus,1.2-1.3 fold
same,Proportional reduction of pathogenic species in a dual species biofilm post-Arginine treatment,Prevotella intermedia; [4],−99.99%
same,Proportional reduction of pathogenic species in a dual species biofilm post-Arginine treatment,Prevotella intermedia; [5],81.56%
same,Proportional reduction of pathogenic species in a dual species biofilm post-Arginine treatment,Prevotella intermedia; [6],−98.29%
same,Proportional reduction of pathogenic species in a dual species biofilm post-Arginine treatment,Prevotella intermedia; [7],−52.64%
same,Proportional reduction of pathogenic species in a dual species biofilm post-Arginine treatment,Prevotella intermedia; [8],−73.78%
same,Proportional reduction of pathogenic species in a dual species biofilm post-Arginine treatment,Prevotella intermedia; [9],−99.35%
same,Proportional reduction of pathogenic species in a dual species biofilm post-Arginine treatment,[1]; [4],−25.66%
same,Proportional reduction of pathogenic species in a dual species biofilm post-Arginine treatment,[1]; [5],−35.38%
same,Proportional reduction of pathogenic species in a dual species biofilm post-Arginine treatment,[1]; [6],100.61%
same,Proportional reduction of pathogenic species in a dual species biofilm post-Arginine treatment,[1]; [7],73.94%
same,Proportional reduction of pathogenic species in a dual species biofilm post-Arginine treatment,[1]; [8],268.65%
same,Proportional reduction of pathogenic species in a dual species biofilm post-Arginine treatment,[1]; [9],233.40%
same,Proportional reduction of pathogenic species in a dual species biofilm post-Arginine treatment,Porphyromonas gingivalis; [4],−97.78%
same,Proportional reduction of pathogenic species in a dual species biofilm post-Arginine treatment,Porphyromonas gingivalis; [5],90.75%
same,Proportional reduction of pathogenic species in a dual species biofilm post-Arginine treatment,Porphyromonas gingivalis; [6],−52.94%
same,Proportional reduction of pathogenic species in a dual species biofilm post-Arginine treatment,Porphyromonas gingivalis; [7],−96.62%
same,Proportional reduction of pathogenic species in a dual species biofilm post-Arginine treatment,Porphyromonas gingivalis; [8],−79.23%
same,Proportional reduction of pathogenic species in a dual species biofilm post-Arginine treatment,Porphyromonas gingivalis; [9],−85.49%
same,growth of beneficial bacteria in arginine-cultured dual species biofilms,beneficial bacteria,increase
same,Proportional reduction of pathogenic species in a dual species biofilm post-Arginine treatment,Streptococcus mutans; [4],−23.93%
same,Proportional reduction of pathogenic species in a dual species biofilm post-Arginine treatment,Streptococcus mutans; [5],−15.19%
same,Proportional reduction of pathogenic species in a dual species biofilm post-Arginine treatment,Streptococcus mutans; [6],−87.64%
same,Proportional reduction of pathogenic species in a dual species biofilm post-Arginine treatment,Streptococcus mutans; [7],−0.72%
same,Proportional reduction of pathogenic species in a dual species biofilm post-Arginine treatment,Streptococcus mutans; [8],−3.47%
same,Proportional reduction of pathogenic species in a dual species biofilm post-Arginine treatment,Streptococcus mutans; [9],−19.30%
same,Proportional reduction of pathogenic species in a dual species biofilm post-Arginine treatment,Streptococcus sobrinus; [4],−7.87%
same,Proportional reduction of pathogenic species in a dual species biofilm post-Arginine treatment,Streptococcus sobrinus; [5],−1.33%
same,Proportional reduction of pathogenic species in a dual species biofilm post-Arginine treatment,Streptococcus sobrinus; [6],−50.33%
same,Proportional reduction of pathogenic species in a dual species biofilm post-Arginine treatment,Streptococcus sobrinus; [7],49.29%
same,Proportional reduction of pathogenic species in a dual species biofilm post-Arginine treatment,Streptococcus sobrinus; [8],−15.77%
same,Proportional reduction of pathogenic species in a dual species biofilm post-Arginine treatment,Streptococcus sobrinus; [9],−40.73%
same,increase of pathogenic bacteria growth,pathogenic bacteria,no significant increase
same,Proportional reduction of pathogenic species in a dual species biofilm post-Arginine treatment,Fusobacterium nucieatum; [4],13.35%
same,Proportional reduction of pathogenic species in a dual species biofilm post-Arginine treatment,Fusobacterium nucieatum; [5],−28.32%
same,Proportional reduction of pathogenic species in a dual species biofilm post-Arginine treatment,Fusobacterium nucieatum; [6],474.12%
same,Proportional reduction of pathogenic species in a dual species biofilm post-Arginine treatment,Fusobacterium nucieatum; [7],209.31%
same,Proportional reduction of pathogenic species in a dual species biofilm post-Arginine treatment,Fusobacterium nucieatum; [8],101.73%
same,Proportional reduction of pathogenic species in a dual species biofilm post-Arginine treatment,Fusobacterium nucieatum; [9],112.11%
same,fold increase of growth,S. gordonii,1.2-1.3 fold
same,biofilm formation,[2],no significant increase
same,biofilm formation,[3],increase
same,fold increase of growth,S. sanguinis,1.2-1.3 fold
